US20150292045A1, “ALTERNATIVE USES FOR HBV ASSEMBLY EFFECTORS” (INDIANA UNIVERSITY RESEARCH AND TECHNOLOGY CORPORATION, priority 2012, published 2015)
Read-outs that look alike come from different tables or passages of the source.

Assays:
HBV [1] = test: Suppression of secreted HBV DNA synthesis; type: cell-based; details: Hepatitis B virus
Protocol: Antiviral activity was measured using an inducible HBV expression system, AD38 cells. (Ladner, S. K. et al., Antimicrob Agents Chemother 41, 1715-20 (1997)). Initial experiments tested the activity of 10 μM HAP (percentage viral assembly at 24 hour). For active molecules, effective concentrations were determined for suppression of HBV production by 50% and by 90%; this value is reported in μM. Compound toxicity was tested in the parent cell line, HepG2. This is reported as the concentration required to suppress cell growth by 50%, CC50 (in μM) and as the ratio of CC50/EC50, also known as the therapeutic index. As a control and for comparison, the results for the nucleoside analog 3TC (lamivudine) also described.
(§1) CpAMs were used to treat a transient transfection of huh7 cells. Cytoplasmic RNA was harvested and quantified by RT-per. The transfection system is described by Lentz and Loeb (Lentz and Loeb (2010) J Virol Methods 169, 52-60.) Fresh medium with drug was added to cultured cells daily for four days at concentrations from 0.001 to 10 micromolar. The two points at 0.00001 are both controls where there was no drug and no DMSO. The controls and the DMSO-treated cells had similar amounts of RNA. […] (See FIG. 7)

HBV RNA = test: Transient transfection of Huh-7 cells, cytoplasmic RNA quantified by RT-PCR; type: cell-based, hepatitis B virus; details: for EC50: Hepatitis B virus
Protocol: FIG. 7 Several compounds were used to treat a transient transfection of Huh-7 cells (Huh-7 is a well differentiated hepatocyte derived cellular carcinoma cell line). Cytoplasmic RNA was harvested and quantified by RT-per. Treatment/dynamic range/ED50: DMSO/1.6/NA; AT130/25/0.5 μM; HAP13/20/5 μM; HAP12/36/0.5 μM.
as §1

HBV [2] = test: HepG2 cells transfected with linear full-length HBV DNA: capsid-associated HBV-DNA, cccDNA and pgRNA by real-time PCR; type: cell-based, hepatitis B virus genotype A
Description: a) In HepG2 cells transfected with monomeric linear full length HBV pgRNA and HBV replication are dependent on cccDNA formation, chromatinization and transcription. b) Cytoplasmic HBV core particles were isolated from untreated and HAP12-treated cells at the indicated time points after transfection. Results are expressed as number of HBV DNA copies per transfected cells. c) cccDNA accumulation in untreated and HAP12-treated HepG2 cells transfected with wild type HBV genomes. qPCR analysis was performed using selective cccDNA primers to amplify cccDNA and beta-globin primers to normalize the DNA samples. Results are expressed as number of cccDNA copies per transfected cells. d) mRNAs were prepared from untreated and […] HepG2 cells transfected with wild type HBV genomes and harvested at the indicated times post-transfection. Specific primers were utilized to quantify the HBV pregenomic RNA and GAPDH amplification was used to normalize for equal loading of each RNA sample. All histograms show mean values from two independent experiments; bars indicate standard deviations (SD)
(§2) The activity of the hetero-aryl-dihydropyrimidine HAP12 compound on capsid-associated HBV-DNA (TaqMan real-time PCR), cccDNA (TaqMan real-time PCR) (Werle-Lapostolle, Gastroenterology 2004) and pgRNA levels (quantitative realtime PCR) (Belloni, PNAS 2009) were assessed in three in vitro HBV replication models:
a) HepG2 cells transfected with a linear full-length genotype A HBV DNA (Gunther, J Virol 1995; Pollicino, Gastroenterology 2006);

HBV [3] = test: AD38 stable cell line (tetracycline removal): cytoplasmic core particle HBV DNA and pgRNA; type: cell-based, hepatitis B virus genotype D; details: AD38 cells, treatment started at day 0 or day 6
Description: FIG. 5 HAP12 targets cccDNA transcription in AD38 cells. […] The cccDNA pool is built up from the recycling of mature core particles to the nucleus after HBV replication is started from the pgRNA initially transcribed from the “tet-regulated” HBV integrated DNA (b). HAP12 treatment is started at day 0 (left panels) or day 6 (right panels). c) Cytoplasmic HBV core particles, and total mRNAs (d) were isolated from untreated and HAP12-treated cells at the indicated time points. HBV DNA, cccDNA and pgRNA results are expressed as in FIG. 2. All histograms show mean values from two independent experiments; bars indicate standard deviations (SD).
as §2
c) the AD38 cells are a stable HepG2-derived HBV genotype D clone that, upon tetracycline removal, expresses pgRNA,
assembles subviral particles in the cytoplasm, accumulates cccDNA in the nucleus and secretes HBV virions in the cell supernatant (Ladner, J Virol 1997).

HBV [4] = test: HepG2 H1.3 HBV stable clone: capsid-associated HBV-DNA, cccDNA and pgRNA by real-time PCR; type: cell-based, hepatitis B virus genotype D
Description: HAP12 treatment is started at day 10 of “differentiation” when HBV replication is high and the cccDNA pool is expanded. pgRNA is transcribed from both cccDNA and integrated HBV. b) Cytoplasmic HBV core particles, nuclear cccDNA (c) and total mRNAs (d) were isolated from untreated and HAP12-treated cells at the indicated time points. HBV-DNA, cccDNA and pgRNA results are expressed as in FIG. 2. Histograms show mean values from two independent experiments; bars indicate standard deviations (SD).
By treating the HepG2 H1.3 cells with HAP12 before the establishment of the cccDNA pool it was shown that cccDNA formation and accumulation […] by HAP12. Under these conditions the effect on HBV replication is maximal. a) HAP12 treatment is started at day 0 of “differentiation” when HBV replication and cccDNA levels are very low. b) Cytoplasmic HBV core particles, nuclear cccDNA (c) and total mRNAs (d) were isolated from untreated and HAP12-treated cells at the indicated time points. HBV-DNA, cccDNA and pgRNA results are expressed as in FIG. 2. Histograms show mean values from two independent experiments; bars indicate standard deviations (SD).
as §2
b) the HepG2 H1.3 genotype D HBV stable clone that accumulates cccDNA when cultured in “conditioned” medium at high confluence (Protzer, Gastroenterology 2007; Lucifora, J Hepatol 2011);

[5] = tested on: HBc binding to the cccDNA; test: cccDNA ChIP assay in HepG2 H1.3 cells; type: cell-based, hepatitis B virus; details: 10 days treatment
Description: FIG. 6 HAP12 interferes with HBc binding to the cccDNA. It is herein described that using a cccDNA ChIP assay (a), that HBc is recruited onto the cccDNA in HBV replicating HepG2 cells (b) and in the HepG2 H1.3 stable cell line. […] It is believe that this finding is in agreement with the observed inhibition of cccDNA transcription and pgRNA production in HAP12 treated cells. HAP12 treatment is started at day 10 of HepG2 H1.3 cells “differentiation” (see legend to FIG. 3). Cross-linked chromatin was prepared from untreated and HAP12-treated cells at TO (before treatment, 10 gg “differentiation”) and at T10 (10 days of exposure to HAP12, 20 gg from beginning of […], #H1905-15). ChIPped chromatin was analyzed by qPCR with HBV cccDNA selective primers. Results are expressed as % of input. Histograms show mean values from two independent experiments; bars indicate standard deviations (SD).
Recruitment of HBc and cccDNA bound histones modifications were assessed using the cccDNA ChIP assay (Pollicino, 2006)

[6] = Huh-7, 96 h, huh7 transient transfection, drug daily for four days, read-out: EC50 for RNA suppression
[7] = Huh-7 transient transfection, read-out: ED50 (cytoplasmic RNA)
[8] = HepG2 H1.3, treatment started at day 0, before establishment of the cccDNA pool
[9] = HepG2 H1.3, treatment started at day 10 of differentiation

Structure (SMILES)	EC50 (HBV [1]) [nM]	EC50 (HBV RNA; [6]) [nM]	EC50 (HBV RNA; [7]) [nM]	dynamic range (cytoplasmic RNA) (HBV RNA; Huh-7 transient transfection)	decrease in cccDNA levels (HBV [2]) [%]	suppression of HBV replication (HBV [2]; 72 and 96 hrs)	peak reduction of pgRNA transcription (HBV [2]; at 96 hours) [%]	effect on HBV replication (HBV [3])	effect on pgRNA transcription (HBV [3])	cccDNA formation/accumulation (HBV [4]; [8])	effect on HBV replication (HBV [4]; [8])	effect on HBV replication (HBV [4]; [9])	effect on pgRNA transcription (HBV [4]; [9])	cccDNA HBc occupancy [5]	cccDNA-bound H3 histone acetylation [5]
COc1ccccc1/C(Br)=C(\NC(=O)c1ccc([N+](=O)[O-])cc1)C(=O)N1CCCCC1 [AT130, (E)-N-(1-Bromo-1-(2-methoxyphenyl)-3-oxo-3-(piperidin-1-yl)prop-1-en-2-yl)-4-nitrobenzamide]	2400	500	500	25											
COC(=O)C1=C(CN2CCOCC2)NC(c2ccccn2)=NC1c1ccc(F)cc1Cl (centres unmarked) [HAP12]	12	500	500	36	~30	complete suppression	> 50	inhibitory effect	inhibitory effect	does not prevent	maximal	inhibitory effect	inhibitory effect	strongly inhibited	sharp decrease
COC(=O)C1=C(CN2CCNCC2)NC(c2ccccn2)=NC1c1ccc(F)cc1Cl (centres unmarked) [HAP13]	6100	5000	5000	20											
